From article PMC10762035, “Molecular basis of human trace amine-associated receptor 1 activation” (Nature Communications, 2024)
Values joined by “and” are separate entries in the source; they are usually repeats but may differ in a detail not shown here. Identical values can stand only once. Counter-ions that a name gives are not always drawn.

Assays:
hTA1 [1] = molecular target: T1, hTA1 (Homo sapiens, UniProt Q96RJ0); assay: Screen of 89 aminergic compounds at 10 µM, cAMP accumulation in HEK293T cells; format: cell-based; conditions: quadruplicate values; screen at 10 µM;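 also: HEK293T cells co-transfected with hTA1 and GloSensor cAMP reporter, cAMP accumulation detected by luminescence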
T1 construct: expressed in transfected cells; host or cells: HEK293T
T1 sequence (Q96RJ0 1-339): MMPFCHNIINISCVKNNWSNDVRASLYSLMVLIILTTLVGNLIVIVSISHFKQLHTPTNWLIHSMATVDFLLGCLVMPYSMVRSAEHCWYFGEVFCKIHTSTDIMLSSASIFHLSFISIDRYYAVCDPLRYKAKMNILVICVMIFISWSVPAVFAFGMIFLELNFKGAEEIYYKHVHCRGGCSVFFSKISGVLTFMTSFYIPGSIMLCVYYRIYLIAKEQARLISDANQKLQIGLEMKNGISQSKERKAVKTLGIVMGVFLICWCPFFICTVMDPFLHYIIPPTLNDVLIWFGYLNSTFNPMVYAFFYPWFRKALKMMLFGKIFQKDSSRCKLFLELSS

hTA1 [2] = molecular target: T1, hTA1; assay: GloSensor cAMP accumulation assay, concentration response, wild-type hTA1 in transfected HEK293T cells; format: cell-based; conditions: log[Compound], replicate wells;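 also: luminescence read after 30 min compound exposure at room temperature in cells preloaded with D-Luciferin, reflecting Gs-driven cAMP rise, efficacy scaled to the maximal β-PEA response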

NC(=O)C[S+]([O-])C(c1ccccc1)c1ccccc1 (stereo not shown) [Modafanil]
Luminescence for Screening Data (hTA1 [1]): 6.8 and 5.8 and 5.7 and 8.1

CN1CCC(c2c[nH]c3ccc(O)cc23)CC1 [BRL 54443]
Luminescence for Screening Data (hTA1 [1]): 10 and 7.1 and 8.1 and 6.4

CSc1ccc2c(c1)C(N1CCN(C)CC1)Cc1ccccc1S2 (stereo not shown) [Methiothepin]
Luminescence for Screening Data (hTA1 [1]): 2.6 and 3.3 and 3 and 3.4

O=C1CC[C@@]2(O)[C@H]3Cc4ccc(O)c5c4[C@@]2(CCN3CC2CC2)[C@H]1O5 [Naltrexone hydrochloride]
Luminescence for Screening Data (hTA1 [1]): 7.8 and 5.6 and 5.9 and 6.7

NC(=O)c1ccc(F)c2c1C[C@@H](N(C1CCC1)C1CCC1)CO2 [NAD 299]
Luminescence for Screening Data (hTA1 [1]): 6.3 and 5.6 and 4.8 and 5.9

O=S(=O)(c1ccccc1)c1cnc2c(N3CCNCC3)cccc2c1 [SB742457]
Luminescence for Screening Data (hTA1 [1]): 9 and 8.4 and 8.8 and 9.7

NCCc1ccccc1 [bPEA]
Normalized Luminescence Counts for WT hTA1 (hTA1 [2]; M = -5): 114.55 and 104.58 and 118.623 and 102.53 and 95.7683 and 107.085
Normalized Luminescence Counts for WT hTA1 (hTA1 [2]; M = -5.522): 96.3904 and 87.8446 and 97.5922 and 98.0692 and 90.9789 and 92.0588
Normalized Luminescence Counts for WT hTA1 (hTA1 [2]; M = -6): 88.2006 and 75.1148 and 94.0536 and 103.14 and 88.8658 and 89.805
Normalized Luminescence Counts for WT hTA1 (hTA1 [2]; M = -6.522): 73.7573 and 64.299 and 91.1383 and 74.7791 and 68.7219 and 73.7461
Normalized Luminescence Counts for WT hTA1 (hTA1 [2]; M = -7): 70.4636 and 45.5827 and 61.4726 and 66.5619 and 44.258 and 53.6961
Normalized Luminescence Counts for WT hTA1 (hTA1 [2]; M = -7.522): 36.1467 and 21.3027 and 35.9464 and 26.7905 and 17.9158 and 22.3766
Normalized Luminescence Counts for WT hTA1 (hTA1 [2]; M = -8): 22.727 and 16.7405 and 21.3472 and 13.3611 and 11.9525 and 11.6238
Normalized Luminescence Counts for WT hTA1 (hTA1 [2]; M = -8.522): 4.5 and 4.523 and 5.969 and 4.393 and 2.514 and 2.6083
Normalized Luminescence Counts for WT hTA1 (hTA1 [2]; M = -9): 1.986 and 1.318 and 1.8743 and 1.716 and 1.012 and 1.106
Normalized Luminescence Counts for WT hTA1 (hTA1 [2]; M = -9.522): -1.063 and -1.33 and -0.4402 and -0.06817 and 0.1666 and -0.4908
Normalized Luminescence Counts for WT hTA1 (hTA1 [2]; M = -10): -0.596 and -1.264 and -0.5515 and -0.4438 and -0.7725 and -0.6786
Normalized Luminescence Counts for WT hTA1 (hTA1 [2]; M = -10.522): -1.3749 and -1.931 and -0.6405 and 0.0727 and -0.5847 and -1.101
Normalized Luminescence Counts for WT hTA1 (hTA1 [2]; M = -11): -0.1286 and -1.241 and 0.2497 and 0.6362 and -0.3499 and -0.7725
Normalized Luminescence Counts for WT hTA1 (hTA1 [2]; M = -11.522): -0.01735 and -1.575 and -0.7963 and 0.5892 and -0.3969 and -0.256
Normalized Luminescence Counts for WT hTA1 (hTA1 [2]; M = -12): -1.353 and -1.3749 and -1.286 and 0.02574 and -0.4908 and -0.3029
Normalized Luminescence Counts for WT hTA1 (hTA1 [2]; M = -12.522): -1.152 and -1.664 and -0.9075 and 0.5892 (2×) and 0.4483

COc1cc2nc(N3CCN(C(=O)c4ccco4)CC3)nc(N)c2cc1OC [Prazosin hydrochloride]
Luminescence for Screening Data (hTA1 [1]): 6.6 and 6.4 and 6.7 and 7.2

Cc1nc2n(c(=O)c1CCN1CCC(c3noc4cc(F)ccc34)CC1)CCCC2 [Risperidone]
Luminescence for Screening Data (hTA1 [1]): 6.7 and 6 and 6.8 and 7

CN(C)CCCC1(c2ccc(F)cc2)OCc2cc(C#N)ccc21 (stereo not shown) [Citalopram hydrobromide]
Luminescence for Screening Data (hTA1 [1]): 6.1 and 6.2 and 7.2 and 6.9

C/C=C(/C)C(=O)O[C@H]1C(C)=C2[C@H]([C@@H]1OC(=O)CCCCCCC)[C@@](C)(OC(C)=O)C[C@H](OC(=O)CCC)[C@@]1(O)[C@H]2OC(=O)[C@@]1(C)O [Thapsigargin]
Luminescence for Screening Data (hTA1 [1]): 6.1 and 7.3 and 5.8 and 7.7

COc1ccccc1N1CCN(CCCCN2C(=O)c3ccccc3C2=O)CC1 [NAN190]
Luminescence for Screening Data (hTA1 [1]): 6.8 and 8.1 and 6.1 and 6.2

CN1CCC(c2cn(C)c3ccc(OS(=O)(=O)c4c(F)cccc4F)cc23)CC1.O=C(O)C(=O)O [SGS 518 oxalate]
Luminescence for Screening Data (hTA1 [1]): 6.7 and 6.8 and 8

Fc1ccc2c(CCNCc3cccc(OCC(F)(F)C(F)F)c3)c[nH]c2c1 [LuAE58054]
Luminescence for Screening Data (hTA1 [1]): 7.5 and 10.3 and 7.4 and 7.7

CS(=O)(=O)Nc1ccc(Cc2noc(-c3ccc4[nH]cc(CCN)c4c3)n2)cc1 [L694 247]
Luminescence for Screening Data (hTA1 [1]): 6.5 and 8.1 and 7.2

NCCc1c[nH]c2ccc(O)cc12 [5HT]
Normalized Luminescence Counts for WT hTA1 (hTA1 [2]; M = -5): 22.7551 and 23.5409 and 27.4699 and 21.1146 and 16.9666 and 15.5049
Normalized Luminescence Counts for WT hTA1 (hTA1 [2]; M = -5.522): 12.7034 and 13.2601 and 13.0636 and 11.1989 and 10.4878 and 9.8162
Normalized Luminescence Counts for WT hTA1 (hTA1 [2]; M = -6): 16.6652 and 17.3528 and 14.4388 and 9.54 and 6.932 and 6.5768
Normalized Luminescence Counts for WT hTA1 (hTA1 [2]; M = -6.522): 9.953 and 14.2096 and 13.2928 and 9.698 and 6.261 and 7.564
Normalized Luminescence Counts for WT hTA1 (hTA1 [2]; M = -7): 9.7567 and 9.593 and 11.8194 and 6.3 and 5.55 and 6.814
Normalized Luminescence Counts for WT hTA1 (hTA1 [2]; M = -7.522): 9.298 and 11.492 and 8.12 and 4.167 and 4.444 and 4.799
Normalized Luminescence Counts for WT hTA1 (hTA1 [2]; M = -8): 9.298 and 7.236 and 9.822 and 3.732 and 3.653 and 4.048
Normalized Luminescence Counts for WT hTA1 (hTA1 [2]; M = -8.522): 4.387 and 5.369 and 8.578 and 1.7177 and 3.258 and 2.5868
Normalized Luminescence Counts for WT hTA1 (hTA1 [2]; M = -9): 3.339 and 1.604 and 3.176 and 2.073 and 0.9671 and 0.7301
Normalized Luminescence Counts for WT hTA1 (hTA1 [2]; M = -9.522): 0.589 and 1.473 and 1.408 and 0.01898 and -0.2575 and -0.4946
Normalized Luminescence Counts for WT hTA1 (hTA1 [2]; M = -10): 1.702 and 0.2289 and 0.1307 and -0.9291 and -0.09953 and -0.2971
Normalized Luminescence Counts for WT hTA1 (hTA1 [2]; M = -10.522): 0.6218 and 0.8182 and -0.295 and -1.285 and -0.7316 and -1.364
Normalized Luminescence Counts for WT hTA1 (hTA1 [2]; M = -11): -0.2622 (2×) and -0.5897 and 0.335 and 0.177 and -0.02052
Normalized Luminescence Counts for WT hTA1 (hTA1 [2]; M = -11.522): 0.06517 and 0.3926 and -0.09854 and -0.1785 (2×) and 0.09799
Normalized Luminescence Counts for WT hTA1 (hTA1 [2]; M = -12): 0.1307 and 0.5563 and -0.6551 and -0.6131 and 0.256 and 0.2955
Normalized Luminescence Counts for WT hTA1 (hTA1 [2]; M = -12.522): -0.2295 and 0.1307 and -0.1313 and 0.6906 and 0.8486 and -0.6921
